Patent US20070099905A1, “Combinations of drugs for the treatment of neoplasms” (priority 2002, published 2007)
“And” between values parts separate entries of the source, which are not always exact repeats. Identical values can stand only once. Like-named read-outs stand apart in the source and are kept apart here.

Experiments:
[1] = cited from earlier work
[2] = test system: HCT 116; test: HCT 116 human colon cancer xenograft model; type: in vivo, SCID mice; conditions: 25 mg/Kg (M-F)
Protocol: (§1) All experiments were carried out using male or female 6-8 week old SCID Hsd:ICR(CD-1) mice (Harlan, Indianapolis, Ind.). A-549 cells were harvested, resuspended in DMEM minus serum, and injected subcutaneously into the right flanks (4×10^6 cells/flank in a 300 μL volume). HCT 116 cells were harvested, resuspended in McCoy's 5A minus serum, and injected subcutaneously into the right and left flanks (5×10^6 cells/flank in a 300 μL volume). Tumor volumes were determined by measuring the length (1) and the width (w) and calculating the volume (V=1 w^2/2). Depending on the study, the tumors were between about 150 mm^3-about 800 mm^3 at the time of animal randomization into treatment groups (n=8-10 mice per group).
(§2) Control animals received 200 μL injections of vehicle only.
(§3) Evaluation of the results included statistical analysis of differences in tumor size between test and control groups at the end of each treatment period. Group means were compared using a one-way ANOVA. If the ANOVA was significant, i.e., p≦0.05, a Dunnett's multiple comparison test was used to determine which groups were different. Only animals surviving to the completion of the treatment period were included in the analysis.

[3] = test system: A549 human lung tumor xenografts; test: A549 human lung tumor xenograft model; type: in vivo, SCID mice; conditions: for Reduction in Tumor Volume (% decrease relative to control), positive control: 20 mg/Kg (M, W, F); for Reduction in Tumor Volume (% decrease relative to control), positive control / Tumor volume compared to control animals, single agent alone: 2 week treatment; for Tumor volume compared to control animals, single agent alone: female SCID mice
Protocol: as §1, §2, §3
(§4) A549 cells were injected subcutaneously into female SCID mice and the tumor volumes were allowed to reach about 400 mm^3 prior to animal randomization. Animals were administered one of the above combinations or saline vehicle control intraperitoneally five times per week (each day, Monday through Friday) for two weeks.
as §4, with “male” for “female”, “drug combination” for “one of the above combinations”, “or” for “or saline”, “for three weeks. Treatment was stopped for a one week recovery period, then continued as before for an additional” for “for”

[4] = mice, single intraperitoneal injection 10 mg/kg; cited from earlier work
[5] = test system: endo-exonuclease; conditions: PCT Publication No. WO 01/35935; cited from earlier work
[6] = biological target: T1, protein tyrosine phosphatase 1B (PTP1B) (Homo sapiens, UniProt P18031); conditions: cited from earlier work
T1 sequence (P18031 1-435): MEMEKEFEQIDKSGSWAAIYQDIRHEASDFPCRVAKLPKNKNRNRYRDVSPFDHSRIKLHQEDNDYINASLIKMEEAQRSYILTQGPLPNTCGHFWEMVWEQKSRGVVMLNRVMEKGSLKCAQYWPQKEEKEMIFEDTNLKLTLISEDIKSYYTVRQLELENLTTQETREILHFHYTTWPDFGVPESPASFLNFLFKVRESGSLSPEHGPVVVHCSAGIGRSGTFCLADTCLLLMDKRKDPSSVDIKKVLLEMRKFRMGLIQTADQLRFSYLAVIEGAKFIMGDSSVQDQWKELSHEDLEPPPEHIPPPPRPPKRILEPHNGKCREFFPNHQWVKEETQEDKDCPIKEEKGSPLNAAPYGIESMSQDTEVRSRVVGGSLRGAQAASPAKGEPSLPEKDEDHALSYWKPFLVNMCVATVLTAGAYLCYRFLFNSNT

[7] = test system: phosphatases of regenerating liver (PRL); conditions: cited from earlier work
[8] = mouse, in vivo
Protocol: Unless otherwise stated, drugs were administered daily Monday to Friday. Paclitaxel was administered 3 days per week, Monday, Wednesday, and Friday only. All drugs were administered by intraperitoneal injection in a volume of 100 μL/25 grams. Animals undergoing combination therapy received two individual injections for a total of 200 μL per mouse. Control animals received 200 μL injections of vehicle only.

[9] = gastrointestinal tract; cited from earlier work

N=C(N)c1ccc(OCCCCCOc2ccc(C(=N)N)cc2)cc1 [Pentamidine isethionate, 4,4′-diamidino-diphenoxypentane di(β-hydroxyethanesulfonate)]
Solubility ([1]; ether, acetone, and chloroform): insoluble
Solubility ([1]; water and glycerin): soluble

O=c1[nH]cc(F)c(=O)[nH]1 [5-FU, 5-fluorouracil]
Reduction in Tumor Volume (% decrease relative to control), positive control [2]: 47%

CC(=O)O[C@H]1C(=O)[C@@]2(C)[C@H]([C@H](OC(=O)c3ccccc3)[C@]3(O)C[C@H](OC(=O)[C@H](O)[C@@H](NC(=O)c4ccccc4)c4ccccc4)C(C)=C1C3(C)C)[C@]1(OC(C)=O)CO[C@@H]1C[C@@H]2O [Taxol, paclitaxel]
Reduction in Tumor Volume (% decrease relative to control), positive control [3]: 24% and 29%
Reduction in Tumor Volume (% decrease relative to control), positive control ([3]; listed as paclitaxel): 24%
Tumor volume less than vehicle control ([3]; 20 mg/Kg, end of first treatment period (3 weeks), male SCID mice): 27%

N=C(N)c1ccc(OCCCCCOc2ccc(C(=N)N)cc2)cc1 [pentamidine]
Tumor volume compared to control animals, single agent alone [3]: no decrease in tumor volumes
Tissue distribution [4]: concentration in the kidneys was the highest, followed by that in the liver
Inhibition of endo-exonuclease activity [5]: inhibit the activity
Inhibition of PTP1B [6]: effective inhibitor
Inhibition of PRL [7]: potent inhibitor

CN(C)CCCN1c2ccccc2Sc2ccc(Cl)cc21 [chlorpromazine]
Tumor volume compared to control animals, single agent alone [3]: no decrease in tumor volumes
Time to sedation after administration ([8]; SCID Hsd:ICR(CD-1), ip): ≤ 10 min
Sedation and hypothermia at lower doses [8]: reduced period of sedation and associated hypothermia
Absorption [9]: readily absorbed
